Data as given in US20170306042A1, “IMMUNOGENIC MODULATION BY ENDOCRINE DEPRIVATION THERAPY IMPROVES SENSITIVITY OF TUMOR CELLS TO IMMUNE MEDIATED LYSIS” (The United States of America, as represented by the …, priority 2014, published 2017).

Key:
Assay type in all cases: cell-based, human
[1] = system: ZR75-1 cells; test: CTL assay after tamoxifen, ZR75-1 targets; settings: ZR75-1 (ER+); 1 μM, 72 hours; CEA-specific or MUC-1 specific CTLs; E:T 30:1
Procedure: (§1) To determine sensitivity to immune-mediated killing, breast cancer cells treated with vehicle or 1 μM tamoxifen for 72 hours and then used as targets in a CTL assay using CEA-specific or MUC-1 specific CTLs as effector cells at an E:T ratio of 30:1.

[2] = system: HCC1806 cells; test: CTL assay after tamoxifen, HCC1806 targets; settings: HCC1806 (ER−); 1 μM, 72 hours; E:T 30:1
Procedure: as §1

[3] = system: BT549 cells; test: CTL assay after tamoxifen, BT549 targets; settings: BT549 (ER−); 1 μM, 72 hours; E:T 30:1
Procedure: as §1

[4] = system: MCF-7 cells; test: CTL assay after tamoxifen, MCF-7 targets; settings: MCF-7 (ER+); 1 μM, 72 hours; CEA-specific or MUC-1 specific CTLs; E:T 30:1
Procedure: as §1

[5] = system: ZR75-1, MCF, BT549 and HCC1806 cells; test: Viability of breast cancer cells treated with tamoxifen; settings: 1 μM
Procedure: ZR75-1 (ER+PR+Her2+), MCF (ER+PR+Her2−), BT549 (ER−PR−Her2−), and HCC1806 (ER−PR−Her2−) cells were treated with vehicle or 1 μM tamoxifen to replicate intratumoral concentrations. FIGS. 12A-12D illustrate the fold increase in cell number following treatment. Viability never diminished more than 10% at any given time point.

[6] = system: LNCaP cells; test: Apoptosis PCR array (96 genes) in LNCaP cells
Procedure: The properties of ADT that induce immunogenic modulation and sensitize prostate tumor cells to immune-mediated attack are novel and have not been previously described. It was hypothesized that modulation of apoptotic genes might be part of the mechanism of action of ADT-induced CTL sensitization. […] In particular, gene expression was assessed using an apoptosis PCR array (SA Biosciences, Valencia, Calif.) as per the manufacturer's instructions. RT-PCR was performed on the 7300 Real-Time PCR System (Applied Biosystems, Carlsbad, Calif.). Where indicated, values were calculated as expression relative to GAPDH, as previously described (Ardiani et al., Cancer Res., 74(7): 1945-1957 (2014))

[7] = apoptosis PCR array, negative = down-regulated

SMILES | CTL-mediated lysis [1] | CEA-specific killing [2] | CEA-specific killing [3] | CTL-mediated lysis [4] | diminution of viability at any given time point [5] | number of 96 apoptosis genes down-regulated greater than 2-fold ([6]; RT-PCR array) | number of 96 apoptosis genes up-regulated greater than 2-fold ([6]; RT-PCR array) | CASP1 (Caspase 1) gene expression change [6, 7] | CASP5 gene expression change [6, 7] | CASP8 gene expression change [6, 7] | CD27 gene expression change [6, 7] | DAPK1 gene expression change [6, 7] | HRK gene expression change [6, 7] | NAIP gene expression change [6, 7] | TNFRSF25 (DR3) gene expression change [6, 7] | TNFSF8 gene expression change [6, 7] | NAIP down-regulated ([6]; rounded from Table 1)
CC/C(=C(\c1ccccc1)c1ccc(OCCN(C)C)cc1)c1ccccc1 [tamoxifen] | improved the CTL-mediated lysis | improved CEA-specific killing | improved CEA-specific killing | improved the CTL-mediated lysis | ≤ 10% |  |  |  |  |  |  |  |  |  |  |  | 
C[C@]12CC[C@H](O)CC1=CC[C@@H]1[C@@H]2CC[C@]2(C)C(c3cccnc3)=CC[C@@H]12 [abiraterone] |  |  |  |  |  | 14 | 11 | −4.05 fold | −4.22 fold | −2.25 fold | −3.50 fold | −13.73 fold | −8.57 fold | −4.72 fold | −7.41 fold | −7.51 fold | 5 fold
